Test results: article PMC6425950 (Bioorganic & medicinal chemistry, 2019)

system: HCV genotype 1b RNA replication in Huh-7 cells (subgenomic HCV replicon); test: HCV subgenomic replicon assay, inhibition of HCV RNA replication; assay type: cell-based, Hepatitis C virus; conditions: HCV genotype 1b replicon, Huh-7 cells

SMILES	anti-HCV activity: none at concentration up to
Nc1nc2c(ncn2[C@@H]2O[C@H](CO)[C@@H](O)[C@@]2(F)Cl)c(=O)[nH]1 [Compound 48, 2-Amino-9-((2R,3R,4R,5R)-3-chloro-3-fluoro-4-hydroxy-5-(hydroxymethyl)tetrahydrofuran-2-yl)-1,9-dihydro-6H-purin-6-one]	> 10 µM
Nc1nc2c(ncn2[C@@H]2O[C@H](CO)[C@@H](O)[C@@]2(F)Br)c(=O)[nH]1 [Compound 49, 2-amino-9-((2R,3R,4R,5R)-3-bromo-3-fluoro-4-hydroxy-5-(hydroxymethyl)tetrahydrofuran-2-yl)-1,9-dihydro-6H-purin-6-one]	> 10 µM
CC(C)OC(=O)[C@H](C)NP(=O)(OC[C@H]1O[C@@H](n2cnc3c(=O)[nH]c(N)nc32)[C@](F)(Cl)[C@@H]1O)Oc1ccccc1 (stereo partly drawn) [Compound 50, Isopropyl ((((2R,3R,4R,5R)-5-(2-amino-6-oxo-1,6-dihydro-9H-purin-9-yl)-4-chloro-4-fluoro-3-hydroxytetrahydrofuran-2-yl)methoxy)(phenoxy)phosphoryl)-L-alaninate]	> 10 µM
CC(C)OC(=O)[C@H](C)N[P@](=O)(OC[C@H]1O[C@@H](n2cnc3c(=O)[nH]c(N)nc32)[C@](F)(Br)[C@@H]1O)Oc1ccccc1 [Compound 51, Isopropyl ((((2R,3R,4R,5R)-5-(2-amino-6-oxo-1,6-dihydro-9H-purin-9-yl)-4-bromo-4-fluoro-3-hydroxytetrahydrofuran-2-yl)methoxy)(phenoxy)phosphoryl)-L-alaninate]	> 10 µM

same assay, conditions: HCV replicon; statement in conclusion

SMILES	anti-HCV activity (in words)
CC(C)OC(=O)[C@H](C)NP(=O)(OC[C@H]1O[C@@H](n2ccc(=O)[nH]c2=O)[C@](F)(Cl)[C@@H]1O)Oc1ccccc1 (stereo partly drawn) [Compound 19, Isopropyl ((((2R,3R,4R,5R)-4-chloro-5-(2,4-dioxo-3,4-dihydropyrimidin-1(2H)-yl)-4-fluoro-3-hydroxytetrahydrofuran-2-yl)methoxy)(phenoxy)phosphoryl)-L-alaninate]	low to sub-micromolar range
CC(C)OC(=O)[C@H](C)NP(=O)(OC[C@H]1O[C@@H](n2ccc(=O)[nH]c2=O)[C@](F)(Br)[C@@H]1O)Oc1ccccc1 (stereo partly drawn) [Compound 20, Isopropyl ((((2R,3R,4R,5R)-4-bromo-5-(2,4-dioxo-3,4-dihydropyrimidin-1(2H)-yl)-4-fluoro-3-hydroxytetrahydrofuran-2-yl)methoxy)(phenoxy)phosphoryl)-L-alaninate]	low to sub-micromolar range
Nc1ccn([C@@H]2O[C@H](CO)[C@@H](O)[C@@]2(F)Br)c(=O)n1 [Compound 27, 4-Amino-1-((2R,3R,4R, 5R)-3-bromo-3-fluoro-4-hydroxy-5-(hydroxymethyl)tetrahydrofuran-2-yl)pyrimidin-2(lH)-one]	low to sub-micromolar range
CC(C)OC(=O)[C@H](C)NP(=O)(OC[C@H]1O[C@@H](n2ccc(N)nc2=O)[C@](F)(Br)[C@@H]1O)Oc1ccccc1 (stereo partly drawn) [Compound 32, Isopropyl ((((2R,3R,4R,5R)-5-(4-amino-2-oxopyrimidin-1(2H)-yl)-4-bromo-4-fluoro-3-hydroxytetrahydrofuran-2-yl)methoxy)(phenoxy)phosphoryl)-L-alaninate]	low to sub-micromolar range
CC(C)OC(=O)[C@H](C)NP(=O)(OC[C@H]1O[C@@H](n2ccc(N)nc2=O)[C@](F)(Cl)[C@@H]1O)Oc1ccccc1 (stereo partly drawn) [Compound 35, Isopropyl ((((2R,3R,4R,5R)-5-(4-amino-2-oxopyrimidin-1(2H)-yl)-4-chloro-4-fluoro-3-hydroxytetrahydrofuran-2-yl)methoxy) (phenoxy)phosphoryl)-L-alaninate]	low to sub-micromolar range
CC(C)OC(=O)[C@H](C)NP(=O)(OC[C@H]1O[C@@H](n2cnc3c(N)ncnc32)[C@](F)(Cl)[C@@H]1O)Oc1ccccc1 (stereo partly drawn) [Compound 42, Isopropyl ((((2R,3R,4R,5R)-5-(6-amino-9H-purin-9-yl)-4-chloro-4-fluoro-3-hydroxytetrahydrofuran-2-yl)methoxy) (phenoxy)phosphoryl)-L-alaninate]	low to sub-micromolar range

same assay, conditions: Hepatitis C virus, GETYPE1B, Huh-7, read-out: Anti-HCV activity EC90

SMILES	EC90
Nc1ccn([C@@H]2O[C@H](CO)[C@@H](O)[C@@]2(F)Cl)c(=O)n1 [Compound 26, 4-Amino-1-((2R,3R,4R,5R)-3-chloro-3-fluoro-4-hydroxy-5-(hydroxymethyl)tetrahydrofuran-2-yl)pyrimidin-2(1H)-one]	> 10 µM
Nc1ncnc2c1ncn2[C@@H]1O[C@H](CO)[C@@H](O)[C@@]1(F)Cl [Compound 40, (2R, 3R, 4R, 5R)-5-(6-Amino-9H-purin-9-yl)-4-chloro-4-fluoro-2-(hydroxymethyl)tetrahydrofuran-3-ol]	> 10 µM
Nc1ncnc2c1ncn2[C@@H]1O[C@H](CO)[C@@H](O)[C@@]1(F)Br [Compound 41, (2R, 3R, 4R, 5R)-5-(6-Amino-9H-purin-9-yl)-4-bromo-4-fluoro-2-(hydroxymethyl)tetrahydrofuran-3-ol]	> 10 µM
CC(C)OC(=O)[C@H](C)NP(=O)(OC[C@H]1O[C@@H](n2cnc3c(N)ncnc32)[C@](F)(Br)[C@@H]1O)Oc1ccccc1 (stereo partly drawn) [Compound 43, Isopropyl ((((2R,3R,4R,5R)-5-(6-amino-9H-purin-9-yl)-4-bromo-4-fluoro-3-hydroxytetrahydrofuran-2-yl)methoxy)(phenoxy)phosphoryl)-L-alaninate]	> 10 µM
Nc1nc2c(ncn2[C@@H]2O[C@H](CO)[C@@H](O)[C@@]2(F)Br)c(=O)[nH]1 [Compound 49, 2-amino-9-((2R,3R,4R,5R)-3-bromo-3-fluoro-4-hydroxy-5-(hydroxymethyl)tetrahydrofuran-2-yl)-1,9-dihydro-6H-purin-6-one]	> 10 µM
CC(C)OC(=O)[C@H](C)NP(=O)(OC[C@H]1O[C@@H](n2cnc3c(=O)[nH]c(N)nc32)[C@](F)(Cl)[C@@H]1O)Oc1ccccc1 (stereo partly drawn) [Compound 50, Isopropyl ((((2R,3R,4R,5R)-5-(2-amino-6-oxo-1,6-dihydro-9H-purin-9-yl)-4-chloro-4-fluoro-3-hydroxytetrahydrofuran-2-yl)methoxy)(phenoxy)phosphoryl)-L-alaninate]	> 10 µM
